This passage reports TGI results from PubChem BioAssay (NCI).

Some test systems named below: SN12C renal; A549 NSCLC; MDA-N; OVCAR-3 ovarian; PC-3 prostate; LOX IMVI melanoma; OVCAR-5 ovarian; CCRF-CEM leukemia; SR leukemia; KM12 colon; ACHN renal; NCI-H23 lung.
What all share (assay): NCI anticancer screen, dose series, 48 h

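Assay format: 96-well plates, 48-hour exposure. TGI denotes the concentration required for complete inhibition of growth.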

As to `Cc1ccc(S(=O)(=O)c2[nH]cc(/C(=C\C3CCCCC3)[N+](=O)[O-])c2C2CCCCC2)cc1`, the TGI in the experiment with SN12C renal is 0.49 µM; in the experiment on A549 NSCLC, 6.59 µM; in the experiment on MDA-N, 0.968 µM; in the experiment on OVCAR-3 ovarian, 0.981 µM; with PC-3 prostate, 2.53 µM; with LOX IMVI melanoma, 0.439 µM. The TGI in the experiment on OVCAR-5 ovarian is 3.71 µM; in the experiment on CCRF-CEM leukemia, 0.991 µM; with SR leukemia, 0.891 µM; in the experiment with KM12 colon, 4.1 µM; in the experiment with ACHN renal it was 0.619 µM; in the experiment on NCI-H23 lung it was 3.1 µM.

For the molecule `O=C1Nc2cccc(Cl)c2/C1=C\c1c(Cl)nc2n1CCS2`, the TGI in the experiment on SN12C renal, in the experiment with A549 NSCLC, in the experiment on MDA-N, with OVCAR-3 ovarian, with PC-3 prostate and with LOX IMVI melanoma was more than 100 µM in each case. In addition, the TGI in the experiment with OVCAR-5 ovarian, in the experiment with CCRF-CEM leukemia, in the experiment with SR leukemia, in the experiment on KM12 colon, in the experiment with ACHN renal and in the experiment on NCI-H23 lung was more than 100 µM throughout.

`CC(=O)N(C(C)=O)c1ncc(-n2nc(-c3ccccc3)cc2-c2ccccc2)c(-c2ccccc2)n1`: the TGI with SN12C renal is more than 10 µM; in the experiment on A549 NSCLC it was more than 10 µM; in the experiment with MDA-N it was 9.42 µM; in the experiment with OVCAR-3 ovarian, more than 10 µM; in the experiment with PC-3 prostate, more than 10 µM; with LOX IMVI melanoma, more than 10 µM. Moreover, the TGI in the experiment on OVCAR-5 ovarian, with CCRF-CEM leukemia, with SR leukemia, in the experiment on KM12 colon, in the experiment with ACHN renal and in the experiment on NCI-H23 lung was more than 10 µM in each case.

On to `CO/N=C(\C)c1ccc(Nc2nc3ccccc3c3occc23)cc1`, for which the TGI in the experiment on SN12C renal is 28.9 µM; in the experiment with A549 NSCLC, 39 µM; in the experiment with MDA-N, 28.7 µM; in the experiment on OVCAR-3 ovarian, 96.1 µM; in the experiment with PC-3 prostate, 30.3 µM; with LOX IMVI melanoma, 32.1 µM. For the same molecule, the TGI with OVCAR-5 ovarian came to 31.5 µM; in the experiment with CCRF-CEM leukemia, 42.2 µM; with SR leukemia, 58.6 µM; with KM12 colon, 36.4 µM; in the experiment with ACHN renal, 27.6 µM; in the experiment with NCI-H23 lung, 28.9 µM.

Turning to `O=c1[nH]nnc2c1sc1ncccc12`, the TGI in the experiment on SN12C renal, in the experiment on A549 NSCLC, in the experiment with MDA-N, in the experiment on OVCAR-3 ovarian, in the experiment with PC-3 prostate and in the experiment with LOX IMVI melanoma was more than 100 µM throughout. Further, the TGI in the experiment with OVCAR-5 ovarian, with CCRF-CEM leukemia, with SR leukemia, with KM12 colon, in the experiment on ACHN renal and in the experiment on NCI-H23 lung was more than 100 µM each time.

With `Cc1n(Cc2ccccc2)c2c([n+]1C)C(=O)c1ccccc1C2=O`, the TGI in the experiment on SN12C renal was 0.112 µM; with A549 NSCLC, 0.197 µM; in the experiment with MDA-N it was 0.32 µM; with OVCAR-3 ovarian, 0.0771 µM; with PC-3 prostate it was 0.999 µM; in the experiment with LOX IMVI melanoma, 0.401 µM. In addition, the TGI in the experiment on OVCAR-5 ovarian was 0.503 µM; in the experiment on CCRF-CEM leukemia, more than 100 µM; in the experiment on SR leukemia, more than 45.5 µM; in the experiment with KM12 colon, 0.708 µM; in the experiment on ACHN renal it was 11.4 µM; with NCI-H23 lung, 0.177 µM.

In the case of `CN(CCSCCN(C)C(=O)OC(C)(C)C)C(=O)OC(C)(C)C`, the TGI with SN12C renal, in the experiment with A549 NSCLC, in the experiment on MDA-N, in the experiment on OVCAR-3 ovarian, in the experiment with PC-3 prostate and in the experiment on LOX IMVI melanoma was more than 100 µM each time. The TGI with OVCAR-5 ovarian, with CCRF-CEM leukemia, in the experiment with SR leukemia, in the experiment on KM12 colon, in the experiment with ACHN renal and with NCI-H23 lung was more than 100 µM throughout.

`COc1cccc(C2c3cc4c(cc3OC(N3CCCCC3)C2C)OCO4)c1O` (stereo not drawn): the TGI with SN12C renal is 19.4 µM; in the experiment on A549 NSCLC, more than 66.5 µM; in the experiment on MDA-N it was 7.71 µM; with OVCAR-3 ovarian it was 9.14 µM; in the experiment with PC-3 prostate, more than 79.8 µM; in the experiment with LOX IMVI melanoma it was 41.7 µM. Also, the TGI in the experiment with OVCAR-5 ovarian was 57.7 µM; in the experiment on CCRF-CEM leukemia it was 13.9 µM; in the experiment with SR leukemia it was 11.8 µM; in the experiment on KM12 colon it was 23.1 µM; with ACHN renal, 56.5 µM; in the experiment on NCI-H23 lung it was more than 71.6 µM.

As for `COC(=O)c1ccc(/C=C/c2cc(O)ccc2O)cc1`, the TGI in the experiment with SN12C renal was 18.8 µM; in the experiment on A549 NSCLC, more than 100 µM; in the experiment with MDA-N, more than 46.7 µM; in the experiment on OVCAR-3 ovarian, 6.86 µM; in the experiment with PC-3 prostate, 22.2 µM; in the experiment on LOX IMVI melanoma, 9.39 µM. Further, the TGI with OVCAR-5 ovarian is 70.3 µM; in the experiment on CCRF-CEM leukemia it was 0.719 µM; in the experiment on SR leukemia, 3.69 µM; in the experiment with KM12 colon, 28 µM; in the experiment on ACHN renal, 14.1 µM; in the experiment on NCI-H23 lung, more than 38.5 µM.
